We go through 15 molecules from US11447517B2, “Galactoside inhibitor of galectins” (GALECTO BIOTECH AB, priority 2018, dated 2022).

A short description of data set [1]: Uptake over CACO-2 cell monolayers. The data set is classed as in vitro ADME. The following applies: human; for Papp A→B: apical to basolateral; for Papp B→A: basolateral to apical; for efflux ratio: read-out: Efflux ratio Papp (B > A/A > B). The text has this:
Uptake of a drug over the intestine can be predicted measuring the uptake over a monolayer of CACO-2 cells measured as Papp(10^-6 cm/s). […] By introduction of small alkyl substituents to the galactoside 2-OH such as compounds of formula (1) results in low or no efflux combined with a high uptake (Papp >10 10^-6 cm/s) over CACO-2 cells from the apical to the basolateral side of the cells.

The subject of data set [2] is galectins. The following applies: cited from earlier work.
Data set [3] has as its target galectin-3 (Homo sapiens (Human), UniProt P17931). As to the kind of experiment: Fluorescence anisotropy assay, inhibition of galectin / fluorescein tagged saccharide probe interaction. The data set is classed as binding. The procedure: Evaluation of Kd Values The affinity of Example 1-71 for galectins were determined by a fluorescence anisotropy assay where the compound was used as an inhibitor of the interaction between galectin and a fluorescein tagged saccharide probe as described Sörme, P., Kahl-Knutsson, B., Huflejt, M., Nilsson, U. J., and Leffler H. (2004) Fluorescence polarization as an analytical tool to evaluate galectin-ligand interactions. Anal. Biochem. 334: 36-47, (Sörme et al., 2004) and Monovalent interactions of Galectin-1 By Salomonsson, Emma; Larumbe, Amaia; Tejler, Johan; Tullberg, Erik; Rydberg, Hanna; Sundin, Anders; Khabut, Areej; Frejd, Torbjorn; Lobsanov, Yuri D.; Rini, James M.; et al, From Biochemistry (2010), 49(44), 9518-9532, (Salomonsson et al., 2010). […] 100 nM albumin was included as a carrier to prevent protein loss at such low concentration of galectin.
(In general: In fluorescence polarisation assays a small probe gives low polarisation when free and higher when bound to something large.)

Chain of galectin-3 (P17931 whole entry): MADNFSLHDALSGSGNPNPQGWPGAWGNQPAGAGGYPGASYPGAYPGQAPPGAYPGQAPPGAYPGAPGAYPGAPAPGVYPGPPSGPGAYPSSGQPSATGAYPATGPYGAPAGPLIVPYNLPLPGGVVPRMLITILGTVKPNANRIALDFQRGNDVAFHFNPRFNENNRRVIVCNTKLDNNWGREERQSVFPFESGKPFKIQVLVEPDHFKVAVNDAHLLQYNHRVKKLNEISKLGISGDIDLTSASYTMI

As for `Cc1ccc(-c2cn([C@@H]3C(O)[C@@H](Sc4cc(Cl)cnc4C#N)OC(CO)[C@@H]3O)nn2)cc1F` (stereo partly drawn), in data set [1], the Papp A→B is 3 ×10⁻⁶ cm/s, the Papp B→A came to 30 ×10⁻⁶ cm/s and the efflux ratio is 10.

Turning to `N#Cc1ncc(Cl)cc1S[C@H]1OC(CO)[C@H](O)[C@H](n2cc(-c3cc(F)c(Cl)c(F)c3)nn2)C1O` (stereo partly drawn), in data set [1], the Papp A→B was 5 ×10⁻⁶ cm/s, the basolateral-to-apical permeability (Papp B→A) stood at 46 ×10⁻⁶ cm/s and the efflux ratio worked out at 9.

Turning to `OCC1O[C@H](Sc2cncc(Cl)c2)C(O)[C@@H](n2cc(-c3cc(F)c(F)c(F)c3)nn2)[C@H]1O` (stereo partly drawn), in data set [1], the Papp A→B came out at 4 ×10⁻⁶ cm/s, the Papp B→A amounted to 36 ×10⁻⁶ cm/s and the efflux ratio was found to be 9.

For `O=C[C@H](O)[C@@H](O)[C@@H](O)[C@H](O)CO` [D-galactose], the “Affinity, times lower than lactose” value in data set [2] (relative to lactose) is on record as 50-100 times.

With `CO[C@@H]1[C@@H](n2cc(-c3cc(F)c(F)c(F)c3)nn2)[C@@H](O)[C@@H](CO)O[C@@H]1Sc1cncc(Br)c1` [Example 1, 5-Bromopyridin-3-yl 3-deoxy-3-[4-(3,4,5-trifluorophenyl)-1H-1,2,3-triazol-1-yl]-2-O-methyl-1-thio-α-D-galactopyranoside], in data set [3], the Kd came to 0.025 µM. In addition, in data set [1], the Papp A→B worked out at 30 ×10⁻⁶ cm/s, the Papp B→A amounted to 38 ×10⁻⁶ cm/s and the efflux ratio was determined as 1.2.

As to `CO[C@@H]1[C@@H](n2cc(-c3ccc(C)c(F)c3)nn2)[C@@H](O)[C@@H](CO)O[C@@H]1Sc1cc(Cl)cnc1C#N` [Example 13, 5-Chloro-2-cyanopyridin-3-yl 3-deoxy-3-[4-(3-fluoro-4-methylphenyl)-1H-1,2,3-triazol-1-yl]-2-O-methyl-1-thio-α-D-galactopyranoside], binding in data set [3] was put at a Kd of 0.014 µM. Also, in data set [1], the Papp A→B was found to be 18 ×10⁻⁶ cm/s, the Papp B→A came out at 23 ×10⁻⁶ cm/s and the efflux ratio came to 1.3.

The molecule `CO[C@@H]1[C@@H](n2cc(-c3ccc(C)c(F)c3)nn2)[C@@H](O)[C@@H](CO)O[C@@H]1Sc1cncc(Cl)c1` [Example 35, 5-Chloropyridin-3-yl 3-deoxy-3-[4-(3-fluoro-4-methylphenyl)-1H-1,2,3-triazol-1-yl]-2-O-methyl-1-thio-α-D-galactopyranoside] came in with a Kd in data set [3] of 0.045 µM. Moreover, in data set [1], the Papp A→B came to 31 ×10⁻⁶ cm/s, the Papp B→A stood at 45 ×10⁻⁶ cm/s and the efflux ratio worked out at 1.4.

As for `CO[C@@H]1[C@@H](n2cc(-c3ccc(C)c(F)c3)nn2)[C@@H](O)[C@@H](CO)O[C@@H]1Sc1cncc(Br)c1` [Example 36, 5-Bromopyridin-3-yl 3-deoxy-3-[4-(3-fluoro-4-methylphenyl)-1H-1,2,3-triazol-1-yl]-2-O-methyl-1-thio-α-D-galactopyranoside], the Kd in data set [3] was determined as 0.026 µM. Besides, in data set [1], the Papp A→B was determined as 28 ×10⁻⁶ cm/s, the Papp B→A came out at 32 ×10⁻⁶ cm/s and the efflux ratio came to 1.1.

Turning to `CO[C@@H]1[C@@H](n2cc(-c3ccc(C)c(F)n3)nn2)[C@@H](O)[C@@H](CO)O[C@@H]1Sc1cncc(Cl)c1` [Example 43, 5-Chloropyridin-3-yl 3-deoxy-3-[4-(6-fluoro-5-methylpyridin-2-yl)-1H-1,2,3-triazol-1-yl]-2-O-methyl-1-thio-α-D-galactopyranoside], in data set [3], the Kd is 0.039 µM. In data set [1], the Papp A→B amounted to 26 ×10⁻⁶ cm/s, the Papp B→A came to 34 ×10⁻⁶ cm/s and the efflux ratio turned out to be 1.3.

In data set [3], `CO[C@@H]1[C@@H](n2cc(-c3cc(F)c(Cl)c(F)c3)nn2)[C@@H](O)[C@@H](CO)O[C@@H]1Sc1cncc(C#N)c1` [Example 60, 5-Cyanopyridin-3-yl 3-[4-(4-chloro-3,5-difluorophenyl)-1H-1,2,3-triazol-1-yl]-3-deoxy-2-O-methyl-1-thio-α-D-galactopyranoside] had a Kd of 0.08 µM.

In turn, `CO[C@@H]1[C@@H](n2cc(-c3cc(F)c(F)c(F)c3)nn2)[C@@H](O)[C@@H](CO)O[C@@H]1Sc1cc(Br)ccc1C(=O)N1CCC1` [Example 64, 2-(N-azetidinyl-carbonyl)-5-bromophenyl 3-deoxy-3-[4-(3,4,5-trifluorophenyl)-1H-1,2,3-triazol-1-yl]-2-O-methyl-1-thio-α-D-galactopyranoside] registered a Kd in data set [3] of 0.016 µM.

In data set [3], `CCO[C@@H]1[C@@H](n2cc(-c3cc(F)c(F)c(F)c3)nn2)[C@@H](O)[C@@H](CO)O[C@@H]1Sc1cc(Br)ccc1C(=O)N1CCC1` [Example 65, 2-(N-azetidinyl-carbonyl)-5-bromophenyl 3-deoxy-3-[4-(3,4,5-trifluorophenyl)-1H-1,2,3-triazol-1-yl]-2-O-ethyl-1-thio-α-D-galactopyranoside] returned a Kd of 0.018 µM.

In turn, `CO[C@@H]1[C@@H](n2cc(-c3cc(F)c(F)c(F)c3)nn2)[C@@H](O)[C@@H](CO)O[C@@H]1Sc1cc(Cl)ccc1C(=O)N1CCC1` [Example 70, 2-(N-azetidinyl-carbonyl)-5-chlorophenyl 3-deoxy-3-[4-(3,4,5-trifluorophenyl)-1H-1,2,3-triazol-1-yl]-2-O-methyl-1-thio-α-D-galactopyranoside] returned a Kd in data set [3] of 0.012 µM.

Turning to `CO[C@@H]1[C@@H](n2cc(-c3cc(F)c(Cl)c(F)c3)nn2)[C@@H](O)[C@@H](CO)O[C@@H]1Sc1ccc(Cl)c(Cl)c1` [Example 71, 3,4-Dichlorophenyl 3-[4-(4-chloro-3,5-difluorophenyl)-1H-1,2,3-triazol-1-yl]-3-deoxy-2-O-methyl-1-thio-α-D-galactopyranoside], the Kd in data set [3] worked out at 0.25 µM.

As to `OC[C@H]1O[C@@H](O[C@H]2[C@H](O)[C@@H](O)C(O)O[C@@H]2CO)[C@H](O)[C@@H](O)[C@H]1O` (stereo partly drawn) [lactose], the Kd in data set [2] (Leffler 2001, Leffler et al. 2004, read-out: Kd, all galectins) is 500 to 1000 µM.

As a reminder, the Papp A→B is how fast a substance crosses the layer from the apical side. Higher therefore signals ready permeation. One may read the Papp B→A as how fast a substance crosses the layer from the basolateral side. A word on the Kd: it is the equilibrium constant for the complex coming apart.
